In ChEMBL document CHEMBL4219245, “Development of piperazine-based hydroxamic acid inhibitors against falcilysin, an essential malarial protease” (Bioorg Med Chem Lett, 2018):

What was measured:
Falcilysin = target: T1, Falcilysin (Plasmodium falciparum (isolate 3D7), UniProt Q76NL8); test: Inhibition of Plasmodium falciparum 3D7 FLN (55 to 1193 residues) expressed in Escherichia coli BL21 using Dabcyl-HKRHSFRMRG-EDANS as substrate preincubated for 5 mins followed by substrate addition measured for 10 mins by fluorescence assay
T1 sequence (Q76NL8 whole entry): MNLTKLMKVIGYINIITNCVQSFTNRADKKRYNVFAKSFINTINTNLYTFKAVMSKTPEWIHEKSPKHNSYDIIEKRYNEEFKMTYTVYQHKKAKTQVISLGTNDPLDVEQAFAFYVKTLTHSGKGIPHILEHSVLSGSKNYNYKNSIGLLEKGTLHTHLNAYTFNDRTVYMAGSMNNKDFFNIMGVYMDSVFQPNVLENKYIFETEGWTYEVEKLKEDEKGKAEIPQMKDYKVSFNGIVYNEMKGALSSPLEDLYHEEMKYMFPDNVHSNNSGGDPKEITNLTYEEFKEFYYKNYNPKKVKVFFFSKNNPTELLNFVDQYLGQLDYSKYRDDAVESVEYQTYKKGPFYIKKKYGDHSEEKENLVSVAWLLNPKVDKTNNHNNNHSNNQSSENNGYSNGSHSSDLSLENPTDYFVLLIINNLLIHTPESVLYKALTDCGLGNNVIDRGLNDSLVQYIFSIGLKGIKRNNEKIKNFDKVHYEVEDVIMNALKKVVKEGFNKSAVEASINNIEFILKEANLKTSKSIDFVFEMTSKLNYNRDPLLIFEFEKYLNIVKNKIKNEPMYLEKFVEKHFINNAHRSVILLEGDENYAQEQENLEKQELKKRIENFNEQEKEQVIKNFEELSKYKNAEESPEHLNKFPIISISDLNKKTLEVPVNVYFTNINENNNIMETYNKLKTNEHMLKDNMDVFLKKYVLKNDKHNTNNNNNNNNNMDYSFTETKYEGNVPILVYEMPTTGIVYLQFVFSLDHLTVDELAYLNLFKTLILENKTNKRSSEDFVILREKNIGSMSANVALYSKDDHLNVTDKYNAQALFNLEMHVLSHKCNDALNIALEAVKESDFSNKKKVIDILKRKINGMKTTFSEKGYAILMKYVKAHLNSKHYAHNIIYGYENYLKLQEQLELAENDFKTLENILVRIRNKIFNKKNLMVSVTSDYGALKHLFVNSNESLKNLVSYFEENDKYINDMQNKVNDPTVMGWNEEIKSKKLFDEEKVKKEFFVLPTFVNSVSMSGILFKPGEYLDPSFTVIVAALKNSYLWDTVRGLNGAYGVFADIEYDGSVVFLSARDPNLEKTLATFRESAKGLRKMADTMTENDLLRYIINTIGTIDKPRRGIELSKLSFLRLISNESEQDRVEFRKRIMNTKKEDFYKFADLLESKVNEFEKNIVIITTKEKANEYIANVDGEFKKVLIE

Plasmodium falciparum = test: Parasiticidal activity against ring stage Plasmodium falciparum 3D7 infected in human RBC after 70 to 80 hrs by acridine orange staining-based assay; format: functional, organism-based; details: 3D7, Erythrocyte

Row | Structure (SMILES) | IC50 (Falcilysin) | IC50 (Plasmodium falciparum)
1 | COc1ccc(S(=O)(=O)N2CCN(C(=O)c3ccc(-c4ccccc4)cc3)CC2C(=O)NO)cc1 (configuration not stated) | 10 µM | 5 µM
2 | COc1ccc(S(=O)(=O)N2CCN(C(=O)c3ccccc3)CC2C(=O)NO)cc1 (configuration not stated) | > 50 µM | > 10 µM
3 | COc1ccc(S(=O)(=O)N2CCN(C(=O)c3ccc(Br)cc3)CC2C(=O)NO)cc1 (configuration not stated) | 14 µM | > 10 µM
4 | O=C(NO)C1CN(C(=O)c2ccccc2)CCN1S(=O)(=O)c1ccc(Br)cc1 (configuration not stated) | 35 µM | > 10 µM
5 | O=C(NO)C1CN(C(=O)c2ccc(-c3ccccc3)cc2)CCN1S(=O)(=O)c1ccc(Br)cc1 (configuration not stated) | 1.4 µM | 1.4 µM
6 | O=C(NO)C1CN(C(=O)c2ccc(F)cc2)CCN1S(=O)(=O)c1ccc(Br)cc1 (configuration not stated) | 16 µM | > 10 µM
7 | CCCCN1CCN(S(=O)(=O)c2ccccc2)C(C(=O)NO)C1 (configuration not stated) | > 50 µM | > 10 µM
8 | O=C(NO)C1CN(C(=O)c2ccc(F)cc2)CCN1S(=O)(=O)c1ccccc1 (configuration not stated) | > 50 µM | > 10 µM
9 | O=C(NO)C1CN(C(=O)c2cccc(F)c2)CCN1S(=O)(=O)c1ccccc1 (configuration not stated) | > 50 µM | > 10 µM
10 | O=C(NO)C1CN(CCCO)CCN1S(=O)(=O)c1ccccc1 (configuration not stated) | > 50 µM | > 10 µM
11 | O=C(NO)C1CN(C(=O)c2ccc(Cl)c(Cl)c2)CCN1S(=O)(=O)c1ccccc1 (configuration not stated) | 5 µM | > 10 µM
12 | O=C(NO)C1CN(C(=O)c2ccccc2)CCN1S(=O)(=O)c1ccccc1 (configuration not stated) | 40 µM | > 10 µM
13 | O=C(NO)C1CN(C(=O)c2ccc(-c3ccccc3)cc2)CCN1S(=O)(=O)c1ccccc1 (configuration not stated) | 8 µM | > 10 µM
14 | O=C(NO)C1CN(C(=O)c2ccccc2Br)CCN1S(=O)(=O)c1ccccc1 (configuration not stated) | 7 µM | > 10 µM
15 | COc1ccc(S(=O)(=O)N2CCN(C(=O)c3cccc(Br)c3)CC2C(=O)NO)cc1 (configuration not stated) | 10 µM | > 10 µM
16 | O=C(NO)C1CN(C(=O)c2ccc(Br)cc2)CCN1S(=O)(=O)c1ccccc1 (configuration not stated) | 13 µM | > 10 µM
17 | CCC(=O)N1CCN(S(=O)(=O)c2ccc(Br)cc2)C(C(=O)NO)C1 (configuration not stated) | > 50 µM | > 10 µM
18 | COc1ccc(S(=O)(=O)N2CCN(C(=O)c3ccc(Cl)c(Cl)c3)CC2C(=O)NO)cc1 (configuration not stated) | 6 µM | > 10 µM
19 | COc1ccc(S(=O)(=O)N2CCN(C(=O)c3ccccc3Br)CC2C(=O)NO)cc1 (configuration not stated) | 8 µM | > 10 µM
20 | COc1ccc(S(=O)(=O)N2CCN(S(=O)(=O)c3ccccc3)CC2C(=O)NO)cc1 (configuration not stated) | > 50 µM | > 10 µM
21 | O=C(NO)C1CN(C(=O)c2cccc(F)c2)CCN1S(=O)(=O)c1ccc(Br)cc1 (configuration not stated) | 31 µM | > 10 µM
